For series [1], the system named is HSV-2. Conditions: once daily suppressive therapy; cited from earlier work.
Series [2] can be described thus: Hygroscopicity / DVS water sorption. The class given is physicochemical. Conditions: for DVS: release and adsorption of water: 25° C., experiment time <600 min for Form C. An excerpt: FIG. 6A: weight vs. relative humidity, FIG. 6B: measurement over time.
(§1) The hemihydrate Form C was isolated on larger scale. The starting material for the screening (Form B) was a monohydrate. Additionally a potential dihydrate (form L) was identified. […] To extend the exposure to different relative humidity (RH) values small vials with solid/saturated solutions were loaded with an open pan of Form C on top and the sealed vials kept for 5 days (see the data below for different humidity levels).

Series [3] in a line: Exposure of Form C to different relative humidity values, check by XRPD. The class given is physicochemical. The note with it: <5% to 100% RH, sealed vials, 5 days.
Description: as §1

A short description of series [4]: Saturated solubility in individual excipients. The class given is physicochemical. The note with it: mean, n=3. An excerpt:
Comparative Solubility of Free Base and Free Base Hemihydrate in Individual Excipients Saturated solubility (% w/w) of two forms of pritelivir (batches BXR2KVE for the free base and M023862-CA15-033 for pritelivir hemihydrate) in PEG 400 and propylene glycol, mean (range, n=3) are shown in Table 11 below.

Series [5] in a line: pKa value by photometric titration. The class given is physicochemical. Here is the method: (§2) The physical characterization of the free base hemihydrate referred to herein was performed using compendial methods as per European Pharmacopoeia (Ph. Eur.) and/or the U.S.
(§3) The identified forms were then further characterized by several methods: XRPD, Optical microscopy, ^1H-NMR, DSC, TGA, and DVS. The physical characterization of the free base hemihydrate referred to herein was performed using compendial methods as per European Pharmacopoeia (Ph. Eur.) and/or the U.S. Pharmacopeial Convention (USP).
(§4) General properties of N-[5-(aminosulfonyl)-4-methyl-1,3-thiazol-2-yl]-N-methyl-2-[4-(2-pyridinyl)-phenyl]-acetamide hemihydrate Table 9: […]

The nature of series [6]: Octanol/water partition coefficient. The class given is physicochemical. The note with it: 25° C. The method, then: as §2, §3, §4
The subject of series [7] is herpes simplex virus. Conditions: compared with N-[5-(amino-sulfonyl)-4-methyl-1,3-thiazol-2-yl]-N-methyl-2-[4-(2-pyridinyl)phenyl]acetamide; cited from earlier work.

The values below come from patent US12152022B2, “N-[5-(aminosulfonyl)-4-methyl-1,3-thiazol-2-yl]-N-methyl-2-[4-(2-pyridinyl)-phenyl]-acetamide free base hemihydrate, methods of manufacture and uses thereof” (AiCuris Anti-Infective Cures GmbH, priority 2016, dated 2024).

Each structure is given as a SMILES string.

On to `CC(C)[C@H](N)C(=O)OCCOCn1cnc2c(=O)[nH]c(N)nc21` [valacyclovir], for which the “Risk of transmission of genital herpes” value in series [1] is given as “significantly reduces the risk of transmission”.
One may read the logP as a log measure of how a compound divides between an organic and an aqueous phase. A lower logP goes with lower lipophilicity. `Cc1nc(N(C)C(=O)Cc2ccc(-c3ccccn3)cc2)sc1S(N)(=O)=O` [pritelivir hemihydrate, N-[5-(aminosulfonyl)-4-methyl-1,3-thiazol-2-yl]-N-methyl-2-[4-(2-pyridinyl)-phenyl]-acetamide free base hemihydrate]: the Hygroscopicity entry in series [2] is on record as “Not hygroscopic”. Besides, the “DVS: release and adsorption of water” value in series [2] (hemihydrate) is on record as “almost no change”. Moreover, the “Solid form by XRPD after humidity exposure” value in series [3] is recorded as “all samples confirmed to be Form C”. Also, the “Saturated solubility in PEG 400” value in series [4] (PEG 400, hemihydrate) worked out at 7.87 % w/w. The “Saturated solubility in propylene glycol” value in series [4] (Propylene glycol, hemihydrate) was 0.59 % w/w. The “pKa value (photometric titration)” value in series [5] was found to be 4.6. For the same compound, in series [6], the logP is -0.0405.
As for `Cc1nc(N(C)C(=O)Cc2ccc(-c3ccccn3)cc2)sc1S(N)(=O)=O` [pritelivir free base, N-[5-(aminosulfonyl)-4-methyl-1,3-thiazol-2-yl]-N-methyl-2-[4-(2-pyridinyl)-phenyl]-acetamide], the “DVS: release and adsorption of water” value in series [2] (listed as Form B) is “release and adsorb water more rapidly than Form C”. Also, the “Saturated solubility in PEG 400” value in series [4] (PEG 400) is recorded as 3.30 % w/w. Further, the “Saturated solubility in PEG 400 (free base*)” value in series [4] (PEG 400, column marked *, asterisk not explained) came to 7.87 % w/w. The “Saturated solubility in propylene glycol” value in series [4] (Propylene glycol) amounted to 0.20 % w/w. Besides, the “Saturated solubility in propylene glycol (free base*)” value in series [4] (Propylene glycol, column marked *, asterisk not explained) came to 2.84 % w/w.
Consider `C[C@H](Cn1cnc2c(N)ncnc21)OCP(=O)(O)O` [Tenofovir], for which, in series [7], the “IC50-values compared to pritelivir” value is reported as “significantly higher”.
